From ChEMBL document CHEMBL4308841, “Synthesis, in vitro antiproliferative activity, and kinase inhibitory effects of pyrazole-containing diarylureas and diarylamides” (Eur J Med Chem, 2018)

Tests used:
[1] = tested on: SF-539; assay: Growth inhibition of human SF539 cells assessed as cell growth at 0.01 uM incubated for 48 hrs by sulforhodamine B assay relative to control; assay type: functional; conditions: SF-539, 48 h, read-out: Activity
[2] = tested on: U-251; assay: Growth inhibition of human U251 cells assessed as cell growth at 0.01 uM incubated for 48 hrs by sulforhodamine B assay relative to control; assay type: functional; conditions: U-251, 48 h, read-out: Activity
[3] = tested on: OVCAR-4; assay: Growth inhibition of human OVCAR4 cells assessed as cell growth at 0.1 uM incubated for 48 hrs by sulforhodamine B assay relative to control; assay type: functional; conditions: OVCAR-4, 48 h, read-out: Activity
[4] = tested on: MCF7; assay: Growth inhibition of human MCF7 cells assessed as cell growth at 0.01 uM incubated for 48 hrs by sulforhodamine B assay relative to control; assay type: functional; conditions: MCF7, 48 h, read-out: Activity
[5] = tested on: SK-OV-3; assay: Growth inhibition of human SKOV3 cells assessed as cell growth at 100 uM incubated for 48 hrs by sulforhodamine B assay relative to control; assay type: functional; conditions: SK-OV-3, 48 h, read-out: Activity
[6] = tested on: BT-549; assay: Growth inhibition of human BT549 cells assessed as cell growth at 0.01 uM incubated for 48 hrs by sulforhodamine B assay relative to control; assay type: functional; conditions: BT-549, 48 h, read-out: Activity
[7] = tested on: LOX IMVI; assay: Growth inhibition of human LOXIMVI cells assessed as cell growth at 0.1 uM incubated for 48 hrs by sulforhodamine B assay relative to control; assay type: functional; conditions: read-out: Activity
[8] = tested on: NCI-H226; assay: Growth inhibition of human NCI-H226 cells assessed as cell growth at 1 uM incubated for 48 hrs by sulforhodamine B assay relative to control; assay type: functional; conditions: NCI-H226, 48 h, read-out: Activity
[9] = tested on: NCI/ADR-RES; assay: Growth inhibition of human NCI/ADR-RES cells assessed as cell growth at 1 uM incubated for 48 hrs by sulforhodamine B assay relative to control; assay type: functional; conditions: read-out: Activity
[10] = tested on: SF-295; assay: Growth inhibition of human SF295 cells incubated for 48 hrs by sulforhodamine B assay; assay type: functional, cell-based; conditions: SF-295, 48 h
[11] = tested on: SNB-75; assay: Growth inhibition of human SNB75 cells assessed as cell growth at 100 uM incubated for 48 hrs by sulforhodamine B assay relative to control; assay type: functional; conditions: SNB-75, 48 h, read-out: Activity
[12] = tested on: SK-MEL-28; assay: Growth inhibition of human SK-MEL-28 cells assessed as cell growth at 0.01 uM incubated for 48 hrs by sulforhodamine B assay relative to control; assay type: functional; conditions: SK-MEL-28, 48 h, read-out: Activity
[13] = tested on: UO-31; assay: Growth inhibition of human UO31 cells assessed as cell growth at 0.1 uM incubated for 48 hrs by sulforhodamine B assay relative to control; assay type: functional; conditions: UO-31, 48 h, read-out: Activity
[14] = tested on: RPMI-8226; assay: Growth inhibition of human RPMI8226 cells assessed as cell growth at 1 uM incubated for 48 hrs by sulforhodamine B assay relative to control; assay type: functional; conditions: RPMI-8226, 48 h, read-out: Activity
[15] = tested on: SF-268; assay: Growth inhibition of human SF268 cells assessed as cell growth at 1 uM incubated for 48 hrs by sulforhodamine B assay relative to control; assay type: functional; conditions: SF-268, 48 h, read-out: Activity
[16] = tested on: K562; assay: Growth inhibition of human K562 cells incubated for 48 hrs by sulforhodamine B assay; assay type: functional, cell-based; conditions: K562, 48 h
[17] = tested on: SF-295; assay: Growth inhibition of human SF295 cells assessed as cell growth at 1 uM incubated for 48 hrs by sulforhodamine B assay relative to control; assay type: functional; conditions: SF-295, 48 h, read-out: Activity
[18] = tested on: MDA-MB-231; assay: Growth inhibition of human MDA-MB-231 cells assessed as cell growth at 0.01 uM incubated for 48 hrs by sulforhodamine B assay relative to control; assay type: functional; conditions: MDA-MB-231, 48 h, read-out: Activity
[19] = tested on: SK-OV-3; assay: Growth inhibition of human SKOV3 cells assessed as cell growth at 1 uM incubated for 48 hrs by sulforhodamine B assay relative to control; assay type: functional; conditions: SK-OV-3, 48 h, read-out: Activity
[20] = tested on: SF-295; assay: Growth inhibition of human SF295 cells assessed as cell growth at 100 uM incubated for 48 hrs by sulforhodamine B assay relative to control; assay type: functional; conditions: SF-295, 48 h, read-out: Activity
[21] = tested on: NCI-H522; assay: Growth inhibition of human NCI-H522 cells assessed as cell growth at 1 uM incubated for 48 hrs by sulforhodamine B assay relative to control; assay type: functional; conditions: NCI-H522, 48 h, read-out: Activity
[22] = tested on: SNB-19; assay: Growth inhibition of human SNB19 cells assessed as cell growth at 0.01 uM incubated for 48 hrs by sulforhodamine B assay relative to control; assay type: functional; conditions: SNB-19, 48 h, read-out: Activity
[23] = tested on: MDA-MB-435; assay: Growth inhibition of human MDA-MB-435 cells incubated for 48 hrs by sulforhodamine B assay; assay type: functional, cell-based; conditions: MDA-MB-435, 48 h
[24] = tested on: HCT-15; assay: Growth inhibition of human HCT15 cells assessed as cell growth at 100 uM incubated for 48 hrs by sulforhodamine B assay relative to control; assay type: functional; conditions: HCT-15, 48 h, read-out: Activity
[25] = tested on: K562; assay: Growth inhibition of human K562 cells assessed as cell growth at 0.01 uM incubated for 48 hrs by sulforhodamine B assay relative to control; assay type: functional; conditions: K562, 48 h, read-out: Activity
[26] = tested on: 786-0; assay: Growth inhibition of human 786-0 cells incubated for 48 hrs by sulforhodamine B assay; assay type: functional, cell-based; conditions: 786-0, 48 h
[27] = tested on: NCI/ADR-RES; assay: Growth inhibition of human NCI/ADR-RES cells assessed as cell growth at 100 uM incubated for 48 hrs by sulforhodamine B assay relative to control; assay type: functional; conditions: read-out: Activity
[28] = tested on: T47D; assay: Growth inhibition of human T47D cells assessed as cell growth at 1 uM incubated for 48 hrs by sulforhodamine B assay relative to control; assay type: functional; conditions: read-out: Activity
[29] = tested on: MOLT-4; assay: Growth inhibition of human MOLT4 cells incubated for 48 hrs by sulforhodamine B assay; assay type: functional, cell-based; conditions: MOLT-4, 48 h
[30] = tested on: Malme-3M; assay: Growth inhibition of human MALME-3M cells assessed as cell growth at 0.1 uM incubated for 48 hrs by sulforhodamine B assay relative to control; assay type: functional; conditions: read-out: Activity
[31] = read-out: LC50 (the source's name)
[32] = read-out: pLC50 (the source's name) (converted)

O=C(Nc1cccc(-n2cc(-c3ccncc3)c(-c3cc(O)cc(Cl)c3)n2)c1)Nc1ccc(Cl)c(Cl)c1
growth at 0.01 µM [1]: 59% | growth at 0.01 µM [2]: 96% | growth at 0.1 µM [3]: 95% | growth at 0.01 µM [4]: 93% | growth at 100 µM [5]: -22% | growth at 0.01 µM [6]: 94% | growth at 0.1 µM [7]: 105% | growth at 1 µM [8]: 96% | growth at 1 µM [9]: 90% | GI50 ([10]; read-out: GI50): 1.7 µM | CC50 [10, 31]: 4.4 µM | TGI ([10]; read-out: TGI): 45 µM | GI50 ([10]; read-out: pGI50 (converted)): 1.7 µM | CC50 [10, 32]: 43.7 µM | TGI ([10]; read-out: pTGI (converted)): 4.57 µM | growth at 100 µM [11]: -15% | growth at 0.01 µM [12]: 108% | growth at 0.1 µM [13]: 93% | growth at 1 µM [14]: 57% | growth at 1 µM [15]: 89% | GI50 ([16]; read-out: GI50): 2.56 µM | LC50 ([16]; read-out: LC50): > 100 µM | TGI ([16]; read-out: TGI): > 100 µM | GI50 ([16]; read-out: pGI50 (converted)): 2.57 µM | LC50 ([16]; read-out: pLC50 (converted)): > 100 µM | TGI ([16]; read-out: pTGI (converted)): > 100 µM | growth at 1 µM [17]: 77% | growth at 0.01 µM [18]: 94% | growth at 1 µM [19]: 110% | growth at 100 µM [20]: -58% | growth at 1 µM [21]: 54% | growth at 0.01 µM [22]: 97% | GI50 ([23]; read-out: GI50): 1.5 µM | TGI ([23]; read-out: TGI): 35.8 µM | GI50 ([23]; read-out: pGI50 (converted)): 1.58 µM | TGI ([23]; read-out: pTGI (converted)): 3.55 µM | growth at 100 µM [24]: -23% | growth at 0.01 µM [25]: 107% | GI50 ([26]; read-out: GI50): 1.48 µM | CC50 [26, 31]: 9.31 µM | TGI ([26]; read-out: TGI): 37.1 µM | GI50 ([26]; read-out: pGI50 (converted)): 1.48 µM | CC50 [26, 32]: 9.33 µM | TGI ([26]; read-out: pTGI (converted)): 3.72 µM | growth at 100 µM [27]: 2% | growth at 1 µM [28]: 96% | GI50 ([29]; read-out: GI50): 1.43 µM | CC50 [29, 31]: > 100 µM | TGI ([29]; read-out: TGI): 51.8 µM | GI50 ([29]; read-out: pGI50 (converted)): 1.41 µM | CC50 [29, 32]: > 100 µM | TGI ([29]; read-out: pTGI (converted)): 5.13 µM | growth at 0.1 µM [30]: 84%
